According to patent publication US8158792B2, “Spiropiperidines for use as tryptase inhibitors” (Janssen Pharmaceutica N.V., priority 2007, dated 2012):

What follows are molecules tested against human lung tryptase (assay: β-Tryptase In-Vitro Enzyme Assay). Conditions: human lung tryptase 1 nM, substrate H-D-HHT-Ala-Arg-pNa 500 μM, pH 7.4, room temperature.
Assay type: biochemical
Method: The β-tryptase assay was conducted with human lung tryptase (Cortex Biochem #CP3033) in an aqueous buffer (10 mM Tris, 10 mM Hepes, 150 mM NaCl, 0.1% PEG 8000, pH 7.4) using the chromogenic substrate H-D-HHT-Ala-Arg-pNa. […] Percent inhibition was calculated by comparing the initial reaction velocity of samples without inhibitor to those with inhibitor. The initial reaction velocities were analyzed using Microsoft Excel.

Compound	IC50 [nM]
NCc1cc2c(cc1F)OCC21CCN(C(=O)c2ccc(C#Cc3ccccc3)o2)CC1 [Cpd 311, 1-(5-phenylethynyl-furan-2-yl)carbonyl-5′-aminomethyl-6′-fluoro-spiro[piperidine-4,3′-(2H)-benzo[b]furan]]	39
NCc1ccc2c(c1)C1(CCN(C(=O)c3ccc(COc4cccc(Cl)c4)o3)CC1)CO2 [Cpd 134, 1-[5-(3-chloro-phenoxymethyl)-furan-2-yl]carbonyl-5′-aminomethyl-spiro[piperidine-4,3′-(2H)-benzo[b]furan]]	76
NCc1ccc2c(c1)C1(CCN(C(=O)c3ccc(CCl)cc3)CC1)CO2 [Cpd 69, 1-(4-chloromethyl-phenyl)carbonyl-5′-aminomethyl-spiro[piperidine-4,3′-(2H)-benzo[b]furan]]	1600
NCc1ccc2c(c1)C1(CCN(C(=O)c3cc4cc(Cl)ccc4o3)CC1)CO2 [Cpd 13, 1-(5-chloro-benzo[b]-furan-2-yl)carbonyl-5′-aminomethyl-spiro[piperidine-4,3′-(2H)-benzo[b]furan]]	1100
CC(C)Sc1sc(C(=O)N2CCC3(CC2)COc2ccc(CN)cc23)c2c1C(=O)CC(C)(C)C2 [Cpd 225, 1-(3-isopropylthio-4-oxo-6,6-dimethyl-6,7-dihydro-5H-benzo[c]thien-1-yl)carbonyl-5′-aminomethyl-spiro[piperidine-4,3′-(2H)-benzo[b]furan]]	47
CSc1sc(C(=O)N2CCC3(CC2)CN(S(=O)(=O)O)c2ccc(CN)cc23)c2ccccc12 [Cpd 350, 1-(3-methylthio-benzo[c]thien-1-yl)carbonyl-1′-hydroxysulfonyl-5′-aminomethyl-spiro[piperidine-4,3′-(2H)-indole]]	25
CCn1cc(C(=O)N2CCC3(CC2)COc2ccc(CN)cc23)c2cccc(C)c21 [Cpd 250, 1-(1-ethyl-7-methyl-indol-3-yl)carbonyl-5′-aminomethyl-spiro[piperidine-4,3′-(2H)-benzo[b]furan]]	440
COc1ccc(C(=O)N2CCC3(CC2)COc2ccc(CN)cc23)cc1I [Cpd 52, 1-(3-iodo-4-methoxy-phenyl)carbonyl-5′-aminomethyl-spiro[piperidine-4,3′-(2H)-benzo[b]furan]]	22
NCc1ccc2c(c1)C1(CCN(C(=O)/C=C/c3c(F)cccc3F)CC1)CO2 [Cpd 195, (E)-1-(2,6-difluoro-phenylethenyl)carbonyl-5′-aminomethyl-spiro[piperidine-4,3′-(2H)-benzo[b]furan]]	120
NCc1ccc2c(c1)C1(CCN(C(=O)Cc3ccc(Cl)cc3)CC1)CO2 [Cpd 91, 1-(4-chloro-benzyl)carbonyl-5′-aminomethyl-spiro[piperidine-4,3′-(2H)-benzo[b]furan]]	480
NCc1ccc2c(c1)C1(CCN(C(=O)Cc3ccccc3)CC1)CO2 [Cpd 78, 1-benzylcarbonyl-5′-aminomethyl-spiro[piperidine-4,3′-(2H)-benzo[b]furan]]	1400
NCc1ccc2c(c1)C1(CCN(C(=O)c3cccc(NC(N)=S)c3)CC1)CO2 [Cpd 5, 1-(3-aminothiocarbonylamino-phenyl)carbonyl-5′-aminomethyl-spiro[piperidine-4,3′-(2H)-benzo[b]furan]]	450
NCc1ccc2c(c1)C1(CCN(C(=O)c3ccc(-c4ccc(Br)cc4)o3)CC1)CO2 [Cpd 140, 1-[5-(4-bromo-phenyl)-furan-2-yl]carbonyl-5′-aminomethyl-spiro[piperidine-4,3′-(2H)-benzo[b]furan]]	40
NCc1ccc2c(c1)C1(CCN(C(=O)/C(F)=C/c3ccccc3)CC1)CO2 [Cpd 162, (Z)-1-(1-fluoro-2-phenylethenyl)carbonyl-5′-aminomethyl-spiro[piperidine-4,3′-(2H)-benzo[b]furan]]	79
COc1cccc(C(=O)N2CCC3(CC2)COc2ccc(CN)cc23)c1 [Cpd 53, 1-(3-methoxy-phenyl)carbonyl-5′-aminomethyl-spiro[piperidine-4,3′-(2H)-benzo[b]furan]]	870
CCCc1ccc(OCc2ccc(C(=O)N3CCC4(CC3)COc3ccc(CN)cc34)o2)c(OC)c1 [Cpd 212, 1-[5-(2-methoxy-4-propyl-phenoxymethyl)-furan-2-yl]carbonyl-5′-aminomethyl-spiro[piperidine-4,3′-(2H)-benzo[b]furan]]	370
CCCSc1sc(C(=O)N2CCC3(CC2)COc2ccc(CN)cc23)c2c1C(=O)CCC2 [Cpd 211, 1-(3-propylthio-4-oxo-5,6,7-trihydro-4H-benzo[c]thien-1-yl)carbonyl-5′-aminomethyl-spiro[piperidine-4,3′-(2H)-benzo[b]furan]]	17
NCc1ccc2c(c1)C1(CCN(C(=O)c3cccc(Cl)c3)CC1)CO2 [Cpd 39, 1-(3-chloro-phenyl)carbonyl-5′-aminomethyl-spiro[piperidine-4,3′-(2H)-benzo[b]furan]]	3700
NCc1ccc2c(c1)C1(CCN(C(=O)/C=C\c3c[nH]cn3)CC1)CO2 [Cpd 243, (Z)-1-(imidazol-4-ylethenyl)carbonyl-5′-aminomethyl-spiro[piperidine-4,3′-(2H)-benzo[b]furan]]	3100
NCc1ccc2c(c1)C1(CCN(C(=O)c3sc4ccc5ccccc5c4c3Cl)CC1)CO2 [Cpd 298, 1-(1-chloro-naphtho[2,1-b]thien-2-yl)carbonyl-5′-aminomethyl-spiro[piperidine-4,3′-(2H)-benzo[b]furan]]	210
NCc1ccc2c(c1)C1(CCN(C(=O)c3sc(Cl)c(Cl)c3Cl)CC1)CO2 [Cpd 275, 1-(3,4,5-trichloro-thien-2-yl)carbonyl-5′-aminomethyl-spiro[piperidine-4,3′-(2H)-benzo[b]furan]]	22
NCc1ccc2c(c1)C1(CCN(C(=O)c3cn(Cc4ccccc4)c4ccccc34)CC1)CO2 [Cpd 239, 1-(1-benzyl-indol-3-yl)carbonyl-5′-aminomethyl-spiro[piperidine-4,3′-(2H)-benzo[b]furan]]	270
CSc1cc(-c2ccc(Cl)cc2)c(C(=O)N2CCC3(CC2)COc2ccc(CN)cc23)s1 [Cpd 299, 1-[3-(4-chloro-phenyl)-5-methylthio-thien-2-yl]carbonyl-5′-aminomethyl-spiro[piperidine-4,3′-(2H)-benzo[b]furan]]	17
NCc1ccc2c(c1)C1(CCN(C(=O)c3ccc(NC(=O)Cn4cnc5ccccc54)cc3)CC1)CO2 [Cpd 9, 1-(4-benzoimidazol-1-ylmethylcarbonylamino-phenyl)carbonyl-5′-aminomethyl-spiro[piperidine-4,3′-(2H)-benzo[b]furan]]	3300
COc1ccc(-c2cccc(C(=O)N3CCC4(CC3)COc3ccc(CN)cc34)c2)cc1 [Cpd 64, 1-[3-(4-methoxy-phenyl)-phenyl]carbonyl-5′-aminomethyl-spiro[piperidine-4,3′-(2H)-benzo[b]furan]]	95
Cc1occc1C(=O)NCc1ccc(C(=O)N2CCC3(CC2)COc2ccc(CN)cc23)o1 [Cpd 220, 1-[5-(2-methyl-furan-3-yl-carbonylaminomethyl)-furan-2-yl]carbonyl-5′-aminomethyl-spiro[piperidine-4,3′-(2H)-benzo[b]furan]]	690
NCc1ccc2c(c1)C1(CCN(C(=O)c3ccc(C#Cc4ccccc4)o3)CC1)CN2S(=O)(=O)O [Cpd 327, 1-(5-phenylethynyl-furan-2-yl)carbonyl-1′-hydroxysulfonyl-5′-aminomethyl-spiro[piperidine-4,3′-(2H)-indole]]	18
